Laboratory results reported in PubChem BioAssay (NCI).
Values joined by “and” are separate entries in the source; they are usually repeats but may differ in a detail not shown here. Equal values may be shown once.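 Exposure lasted 48 hours, with cells grown in 96-well plates and compounds tested at five concentrations. Here, GI50 denotes the concentration required for 50% inhibition of growth. TGI: concentration producing complete growth inhibition.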

Assays:
Assay in all cases: NCI anticancer screen, dose series, 48 h
[1] = tested on: SK-MEL-5 melanoma
[2] = tested on: MCF7 breast
[3] = tested on: CAKI-1 renal
[4] = tested on: KM12 colon
[5] = tested on: TK-10 renal
[6] = tested on: HOP-62 NSCLC
[7] = tested on: OVCAR-4 ovarian
[8] = tested on: EKVX NSCLC
[9] = tested on: SK-MEL-2 melanoma
[10] = tested on: MDA-N
[11] = tested on: NCI-H23 lung
[12] = tested on: SN12C renal
[13] = tested on: MDA-MB-231 breast
[14] = tested on: BT-549 breast
[15] = tested on: NCI-H460 lung
[16] = tested on: HOP-92 NSCLC
[17] = tested on: PC-3 prostate
[18] = tested on: COLO 205 colon
[19] = tested on: SW-620 colon
[20] = tested on: CCRF-CEM leukemia
[21] = tested on: A549 NSCLC
[22] = tested on: MDA-MB-435
[23] = tested on: SK-OV-3 ovarian
[24] = tested on: ACHN renal
[25] = tested on: HCT-116 colon
[26] = tested on: HS 578T breast
[27] = tested on: SF-295 CNS
[28] = tested on: 786-0 renal
[29] = tested on: HL-60(TB) leukemia
[30] = tested on: SNB-75 CNS
[31] = tested on: IGROV1 ovarian
[32] = tested on: OVCAR-3 ovarian
[33] = tested on: HT29 colon
[34] = tested on: T-47D breast
[35] = tested on: A498 renal
[36] = tested on: OVCAR-5 ovarian
[37] = tested on: DU-145 prostate
[38] = tested on: SR leukemia
[39] = tested on: NCI-H226 lung
[40] = tested on: MOLT-4 leukemia
[41] = tested on: SNB-19 CNS
[42] = tested on: SK-MEL-28 melanoma
[43] = tested on: SF-268 CNS
[44] = tested on: LOX IMVI melanoma
[45] = tested on: M14 melanoma
[46] = tested on: HCT-15 colon
[47] = tested on: NCI/ADR-RES ovarian
[48] = tested on: RPMI-8226 leukemia
[49] = tested on: K-562 leukemia
[50] = tested on: U251 CNS
[51] = tested on: UO-31 renal
[52] = tested on: HCC-2998 colon
[53] = tested on: UACC-257 melanoma
[54] = tested on: OVCAR-8 ovarian
[55] = tested on: MALME-3M melanoma
[56] = tested on: RXF 393 renal
[57] = tested on: UACC-62 melanoma
[58] = tested on: NCI-H522 lung
[59] = tested on: SF-539 CNS

O=C1NC(=O)/C(=C/c2ccc(S(=O)(=O)N/N=C/c3ccc(Cl)cc3)cc2)N1
TGI [1]: > 100 µM
TGI [2]: > 100 µM
TGI [3]: > 100 µM
TGI [4]: > 100 µM
TGI [5]: > 100 µM
TGI [6]: > 100 µM
TGI [7]: > 100 µM
TGI [8]: > 100 µM
TGI [9]: > 100 µM
TGI [10]: > 100 µM
TGI [11]: > 100 µM
TGI [12]: > 100 µM
TGI [13]: > 100 µM
TGI [14]: > 100 µM
TGI [15]: > 100 µM
TGI [16]: > 100 µM
TGI [17]: > 100 µM
TGI [18]: > 100 µM
TGI [19]: > 100 µM
TGI [20]: > 100 µM
TGI [21]: > 100 µM
TGI [22]: > 100 µM
TGI [23]: > 100 µM
TGI [24]: > 100 µM
TGI [25]: > 100 µM
TGI [26]: > 100 µM
TGI [27]: > 100 µM
TGI [28]: > 100 µM
TGI [29]: > 100 µM
TGI [30]: > 100 µM
TGI [31]: > 100 µM
TGI [32]: > 100 µM
TGI [33]: > 100 µM
TGI [34]: > 100 µM
TGI [35]: > 100 µM
TGI [36]: > 100 µM
TGI [37]: > 100 µM
TGI [38]: > 100 µM
TGI [39]: > 100 µM
TGI [40]: > 100 µM
TGI [41]: > 100 µM
TGI [42]: > 100 µM
TGI [43]: > 100 µM
TGI [44]: > 100 µM
TGI [45]: > 100 µM
TGI [46]: > 100 µM
TGI [47]: > 100 µM
TGI [48]: > 100 µM
TGI [49]: > 100 µM
TGI [50]: > 100 µM
TGI [51]: > 100 µM
TGI [52]: > 100 µM
TGI [53]: > 100 µM
TGI [54]: > 100 µM
TGI [55]: > 100 µM
TGI [56]: > 100 µM
TGI [57]: > 100 µM

CCCn1c(SC)nc(COC(=O)NC)c1COC(=O)NC
TGI [1]: > 100 µM
TGI [2]: > 100 µM
TGI [3]: > 100 µM
TGI [58]: > 100 µM
TGI [4]: > 100 µM
TGI [5]: > 100 µM
TGI [6]: > 100 µM
TGI [7]: > 100 µM
TGI [8]: > 100 µM
TGI [9]: > 100 µM
TGI [10]: > 100 µM
TGI [11]: > 100 µM
TGI [12]: > 100 µM
TGI [13]: > 100 µM
TGI [14]: > 100 µM
TGI [15]: > 100 µM
TGI [17]: > 100 µM
TGI [18]: > 100 µM
TGI [19]: > 100 µM
TGI [20]: > 100 µM
TGI [21]: > 100 µM
TGI [22]: > 100 µM
TGI [23]: > 100 µM
TGI [24]: > 100 µM
TGI [25]: > 100 µM
TGI [26]: > 100 µM
TGI [27]: > 100 µM
TGI [59]: > 100 µM
TGI [28]: > 100 µM
TGI [29]: > 100 µM
TGI [30]: > 100 µM
TGI [31]: > 100 µM
TGI [32]: > 100 µM
TGI [33]: > 100 µM
TGI [34]: > 100 µM
TGI [35]: > 100 µM
TGI [36]: > 100 µM
TGI [37]: > 100 µM
TGI [38]: > 100 µM
TGI [39]: > 100 µM
TGI [40]: > 100 µM
TGI [41]: > 100 µM
TGI [42]: > 100 µM
TGI [43]: > 100 µM
TGI [44]: > 100 µM
TGI [45]: > 100 µM
TGI [46]: > 100 µM
TGI [47]: > 100 µM
TGI [48]: > 100 µM
TGI [49]: > 100 µM
TGI [51]: > 100 µM
TGI [53]: > 100 µM
TGI [54]: > 100 µM
TGI [57]: > 100 µM

O=C(CCN1CCCC1)Nc1ccc2sc3ccccc3c(=O)c2n1
TGI [1]: 16.4 µM
TGI [2]: 21.3 µM
TGI [3]: 16.7 µM
TGI [58]: 15.2 µM
TGI [4]: 18.3 µM
TGI [6]: 19.6 µM
TGI [7]: 21.7 µM
TGI [8]: 20.1 µM
TGI [9]: 18 µM
TGI [10]: 20.1 µM
TGI [11]: 22.9 µM
TGI [12]: 21.3 µM
TGI [13]: 18.6 µM
TGI [14]: 19.2 µM
TGI [16]: 60.4 µM
TGI [17]: 22.2 µM
TGI [18]: 16.3 µM
TGI [19]: 19.9 µM
TGI [20]: 25.8 µM
TGI [21]: 17.9 µM
TGI [22]: 17.8 µM
TGI [23]: 14.3 µM
TGI [24]: 16.3 µM
TGI [25]: 16.4 µM
TGI [26]: 18.2 µM
TGI [27]: 27.8 µM
TGI [59]: 18.1 µM
TGI [28]: 17.5 µM
TGI [29]: 16.3 µM
TGI [30]: 18.2 µM
TGI [31]: 23.6 µM
TGI [32]: 20.5 µM
TGI [33]: 6.37 µM
TGI [34]: > 31.6 µM
TGI [35]: 33.7 µM
TGI [36]: 19 µM
TGI [37]: 25.7 µM
TGI [38]: 23.7 µM
TGI [39]: 29.2 µM
TGI [40]: 17.7 µM
TGI [41]: 19.6 µM
TGI [42]: 19.9 µM
TGI [43]: > 31.6 µM
TGI [45]: 17.6 µM
TGI [46]: 16.8 µM
TGI [47]: 21.4 µM
TGI [48]: 21.9 µM
TGI [49]: 21.3 µM
TGI [50]: 18.5 µM
TGI [51]: 16.3 µM
TGI [52]: 17 µM
TGI [53]: 17 µM
TGI [54]: 17.3 µM
TGI [55]: 17.6 µM
TGI [57]: 17.2 µM

COc1cc(/C=C2\CCC/C(=C\c3cc(OC)c(O)c(OC)c3)C2=O)cc(OC)c1O
GI50 [1]: 2.83 µM
TGI [1]: 75 µM and 19.6 µM
GI50 [2]: 4 µM
TGI [2]: 75 µM and > 100 µM
GI50 [3]: 2.51 µM
TGI [3]: 4.38 µM and 7.62 µM
GI50 [58]: 1.24 µM
TGI [58]: 3.5 µM and 2.85 µM
TGI [4]: 8.33 µM
TGI [5]: > 100 µM
GI50 [6]: 5.93 µM
GI50 [7]: 8.24 µM
TGI [7]: 75 µM and > 100 µM
GI50 [8]: 5.14 µM
TGI [8]: 75 µM and > 100 µM
GI50 [9]: 1.63 µM
TGI [9]: 11.8 µM and 4.19 µM
GI50 [10]: 2.52 µM
TGI [10]: 75 µM and > 100 µM
TGI [11]: 3.5 µM and 4.19 µM
GI50 [12]: 4.37 µM
TGI [12]: 75 µM and > 100 µM
TGI [13]: 10.8 µM
TGI [14]: 5.92 µM
TGI [15]: 10.7 µM
GI50 [17]: 1.24 µM
TGI [18]: 73.8 µM and 32.8 µM
TGI [19]: 75 µM and > 100 µM
TGI [20]: 17.8 µM
GI50 [21]: 3.14 µM
GI50 [22]: 2.57 µM
TGI [22]: 75 µM and > 100 µM
TGI [23]: > 100 µM
GI50 [24]: 1.85 µM
TGI [24]: 2.31 µM and 3.94 µM
GI50 [25]: 2.56 µM
TGI [26]: > 100 µM
GI50 [27]: 4.98 µM
TGI [59]: > 100 µM
GI50 [28]: 3.9 µM
TGI [30]: > 100 µM
TGI [31]: 3.89 µM
GI50 [32]: 3.47 µM
GI50 [33]: 3.8 µM
TGI [33]: 38 µM and > 100 µM
TGI [34]: 75 µM
GI50 [35]: 2.18 µM
TGI [35]: 3.21 µM and 4.81 µM
GI50 [36]: 5.22 µM
TGI [36]: 7.4 µM and 63.3 µM
TGI [37]: 6.01 µM
GI50 [38]: 1.73 µM
TGI [38]: 75 µM and 28.8 µM
GI50 [39]: 3.91 µM
TGI [39]: 47.9 µM and > 100 µM
GI50 [40]: 2.97 µM
TGI [40]: 75 µM and 36.5 µM
GI50 [41]: 3.61 µM
TGI [41]: 75 µM and > 100 µM
GI50 [42]: 3.12 µM
TGI [42]: 75 µM and 24.8 µM
TGI [43]: > 100 µM
GI50 [44]: 1.53 µM
GI50 [45]: 2.9 µM
TGI [45]: 75 µM and 69.4 µM
TGI [46]: 3.45 µM
TGI [48]: 7.54 µM
GI50 [49]: 2.26 µM
TGI [49]: 75 µM and > 100 µM
TGI [50]: 2.76 µM and 3.14 µM
GI50 [51]: 2.05 µM
TGI [51]: 3.46 µM and 4.97 µM
GI50 [53]: 2.92 µM
TGI [53]: 75 µM and > 100 µM
TGI [54]: 75 µM
TGI [55]: 4.38 µM and 3.3 µM
TGI [56]: 3.22 µM
TGI [57]: 5.2 µM
